Experiment: Inhibition of Escherichia coli MurD ligase assessed as residual activity at 250 uM after 15 mins by colorimetric malachite green assay

Row | SMILES | Activity
1 | O=C(O)CC[C@H](NC(=O)c1cccc(/C=C2\SC(=O)NC2=O)c1)C(=O)O | 96%
2 | O=C(O)CC[C@@H](NC(=O)c1ccc(/C=C2\SC(=O)NC2=O)cc1)C(=O)O | 96%
3 | O=C(O)CC[C@@H](NC(=O)c1cccc(/C=C2\SC(=O)NC2=O)c1)C(=O)O | 97%
4 | O=C(O)CC[C@H](NC(=O)c1ccc(/C=C2\SC(=O)NC2=O)cc1)C(=O)O | 93%

Experiment: Inhibition of Escherichia coli MurD ligase assessed as residual activity at 500 uM after 15 mins by colorimetric malachite green assay

Row | SMILES | Activity
5 | O=C(O)CC[C@@H](NC(=O)c1cc(/C=C2\SC(=S)NC2=O)ccc1F)C(=O)O | 67%
6 | O=C(O)CC[C@@H](NC(=O)c1cccc(CC2SC(=S)NC2=O)c1)C(=O)O (stereo partly specified) | 91%
7 | O=C(O)CC[C@@H](NC(=O)c1ccc(/C=C2\SC(=S)N(CC(=O)O)C2=O)cc1)C(=O)O | 96%
8 | O=C(O)CC[C@@H](NC(=O)c1ccc(CC2SC(=S)NC2=O)cc1)C(=O)O (stereo partly specified) | 96%
9 | N=C1NC(=O)/C(=C/c2ccc(C(=O)N[C@H](CCC(=O)O)C(=O)O)cc2)S1 | 95%
10 | CN1C(=O)/C(=C/c2ccc(C(=O)N[C@H](CCC(=O)O)C(=O)O)cc2)SC1=S | 85%
11 | O=C(O)CC[C@@H](NC(=O)c1ccc(/C=C2\NC(=O)NC2=O)cc1)C(=O)O | 97%
12 | COC(=O)CC[C@@H](NC(=O)c1cccc(CC2SC(=S)NC2=O)c1)C(=O)OC (stereo partly specified) | 91%

Experiment: Inhibition of Escherichia coli MurD ligase after 15 mins by colorimetric malachite green assay

Row | SMILES | IC50
13 | O=C(O)CC[C@@H](NC(=O)c1cccc(/C=C2\SC(=S)NC2=O)c1)C(=O)O | 89 µM
14 | O=C(O)CC[C@H](NC(=O)c1ccc(/C=C2\SC(=S)NC2=O)cc1)C(=O)O | 10 µM
15 | O=C(O)CC[C@@H](NC(=O)c1ccc(/C=C2\SC(=S)NC2=O)cc1)C(=O)O | 45 µM
16 | O=C(O)CC[C@H](NC(=O)c1cccc(/C=C2\SC(=S)NC2=O)c1)C(=O)O | 172 µM

Reference: ChEMBL document CHEMBL1821626, “Novel 2-thioxothiazolidin-4-one inhibitors of bacterial MurD ligase targeting D-Glu- and diphosphate-binding sites” (Eur J Med Chem, 2011)
